We go through 24 compounds from patent US11845760B2, “PRMT5 inhibitors” (AMGEN INC., priority 2020, dated 2023).

Molecules are shown by their SMILES. pIC50: −log10 of the molar value. Like-named read-outs stand apart in the source and are kept apart here.

The test system of one assay is HCT116 WT cells. Description: HCT116 WT cell line proliferation (CellTiter-Glo cell viability, 6 days). It is filed as cell-based. The settings on record: HCT116 WT (parent) cells, 6 days of treatment, CellTiter-Glo cell viability, read-out: HCT-116 WT IC50. In a few lines:
(§1)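 Isogenic HCT116 pair (parent and MTAP double-allele knockout) in RPMI 1640 + 10% FBS, exposed 6 days to compound: 8–9-point 1:3 dilutions from 1 or 10 μM top, or 22-point 1:2 dilutions from 10 or 50 μM top. CellTiter-Glo luminescence; IC50 from sigmoidal fit (Hill −1) or 4-parameter logistic.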
Background: Cellular ATP, detected with luciferase, serves as a proxy for viable cell number.

The subject of another assay is HCT116 MTAP null cells. Kind of assay: HCT116 MTAP null cell line proliferation (CellTiter-Glo cell viability, 6 days). The assay is classed as cell-based. The settings on record: HCT116 MTAP null cells, 6 days of treatment, CellTiter-Glo cell viability, read-out: HCT-116 MTAP null IC50. A digest of the protocol: as §1

On to `Nc1nc2ccc(C(=O)N3CCOC[C@@H]3c3ccc(C(F)(F)F)cc3)cc2c2ccsc12` (single isomer, unassigned) [Example 488], for which the pIC50 in the assay on HCT116 WT cells (Homo sapiens, HCT-116, 144 h) is 5.13; in the assay with HCT116 MTAP null cells (HCT116-MTAP null, 144 h), below 6.00.
As to `Cc1ccc([C@H]2COCCN2C(=O)c2ccc3nc(N)c4c(c3c2)COC4)cn1` (single isomer, unassigned) [Example 606], the pIC50 in the assay with HCT116 WT cells (Homo sapiens, HCT-116, 144 h) was below 5.00; in the assay with HCT116 MTAP null cells (HCT116-MTAP null, 144 h), 5.99.
For `C[C@@H]1COC[C@H](c2ccc(OC(F)(F)F)cc2)N1C(=O)c1cc2c3c(c(N)nc2cc1Cl)COC3` [Example 530, (4-amino-7-chloro-1,3-dihydrofuro[3,4-c]quinolin-8-yl)((3R,5S)-3-methyl-5-(4-(trifluoromethoxy)phenyl)-4-morpholinyl)methanone] the same measures were 7.22 and 8.40.
For `Cn1ncc2c(N)nc3cc(Cl)c(C(=O)N4CCOC[C@@H]4c4ccc(C(F)(F)F)cc4)cc3c21` [Example 546, (4-amino-7-chloro-1-methyl-1H-pyrazolo[4,3-c]quinolin-8-yl)((3S)-3-(4-(trifluorometliyl)phenyl)-4-morpholinyl)methanone] the same measures were 6.70 and 7.89.
For the compound `Cn1ncc2c(N)nc3cnc(C(=O)N4CCOC[C@@H]4c4ccc(S(F)(F)(F)(F)F)cc4)cc3c21` [Example 448, (4-amino-1-methyl-1H-pyrazolo [4,3-c][1,7]naphthyridin-8-yl)((3S)-3-(4-(pentafluoro-lambda~6~-sulfanyl)phenyl)-4-morpholinyl)methanone], the pIC50 in the assay with HCT116 WT cells (Homo sapiens, HCT-116, 144 h) is 6.89; in the assay on HCT116 MTAP null cells (HCT116-MTAP null, 144 h), 8.22.
On to `CCOc1ccc([C@@H]2COC[C@H](C)N2C(=O)c2ccc3nc(N)c4c(c3c2)CO[C@@H]4C)nn1` (racemic) [Example 321, ((3R)-4-amino-3-methyl-1,3-dihydrofuro[3,4-c]quinolin-8-yl)((3R,5S)-3-(6-ethoxy-3-pyridazinyl)-5-methyl-4-morpholinyl)methanone and ((3R)-4-amino-3-methyl-1,3-dihydrofuro[3,4-c]quinolin-8-yl)((3S,5R)-3-(6-ethoxy-3-pyridazinyl)-5-methyl-4-morpholinyl)methanone], for which the pIC50 in the assay on HCT116 WT cells (Homo sapiens, HCT-116, 144 h) is 5.30; with HCT116 MTAP null cells (HCT116-MTAP null, 144 h), 7.03.
Turning to `Nc1nc2ccc(C(=O)N3CCOC[C@@H]3c3ccc(C(F)(F)F)cc3)cc2c2cnccc12` [Example 503, (5-aminobenzo[c][2,6]naphthyridin-9-yl)((3S)-3-(4-(trifluoromethyl)phenyl)-4-morpholinyl)methanone], the pIC50 in the assay on HCT116 WT cells (Homo sapiens, HCT-116, 144 h) was 6.06; with HCT116 MTAP null cells (HCT116-MTAP null, 144 h) it was 7.41.
`CC1OCc2c1c(N)nc1cnc(C(=O)N3C(C)COCC3c3ccc(OC(F)(F)F)cc3F)cc21` (mixture of isomers) [Example 330, ((3S)-4-amino-3-methyl-1,3-dihydrofuro[3,4-c][1,7]naphthyridin-8-yl)((3R,5S)-3-(2-fluoro-4-(trifluoromethoxy)phenyl)-5-methyl-4-morpholinyl)methanone and ((3S)-4-amino-3-methyl-1,3-dihydrofuro[3,4-c][1,7]naphthyridin-8-yl)((3S,5R)-3-(2-fluoro-4-(trifluoromethoxy)phenyl)-5-methyl-4-morpholinyl)methanone]: the pIC50 with HCT116 WT cells was 4.68; in the assay with HCT116 MTAP null cells it was 6.39.
Consider `Cn1ncc2c(N)nc3cnc(C(=O)N4CCOC[C@@H]4c4ccc(C(F)(F)C(F)(F)F)cc4)cc3c21` [Example 410, (4-amino-1-methyl-1H-pyrazolo[4,3-c][1,7]naphthyridin-8-yl)((3S)-3-(4-(pentafluoroethyl)phenyl)-4-morpholinyl)methanone], for which the pIC50 is 6.35 with HCT116 WT cells (Homo sapiens, HCT-116, 144 h) and 7.82 with HCT116 MTAP null cells (HCT116-MTAP null, 144 h).
For `CCOc1ccc([C@@H]2COC[C@H](C)N2C(=O)c2cc3c4c(c(N)nc3cc2Cl)COC4)nn1` (racemic) [Example 322, (4-amino-7-chloro-1,3-dihydrofuro[3,4-c]quinolin-8-yl)((3R,5S)-3-(6-ethoxy-3-pyridazinyl)-5-methyl-4-morpholinyl)methanone and (4-amino-7-chloro-1,3-dihydrofuro[3,4-c]quinolin-8-yl)((3S,5R)-3-(6-ethoxy-3-pyridazinyl)-5-methyl-4-morpholinyl)methanone], the negative-log IC50 (pIC50) with HCT116 WT cells (Homo sapiens, HCT-116, 144 h) was 6.55; with HCT116 MTAP null cells (HCT116-MTAP null, 144 h) it was 8.22.
With `Nc1nc2ccc(C(=O)N3CCOC[C@H]3c3ccc(C(F)(F)F)cn3)cc2c2c1COC2` (single isomer, unassigned) [Example 571], the pIC50 in the assay with HCT116 WT cells (Homo sapiens, HCT-116, 144 h) is below 5.00; with HCT116 MTAP null cells (HCT116-MTAP null, 144 h) it was below 6.00.
The matching figures for `Nc1nc2cc(F)c(C(=O)N3CCOC[C@@H]3c3ccc(C(F)(F)F)cc3)cc2c2c1COC2` [Example 528, (4-amino-7-fluoro-1,3-dihydrofuro[3,4-c]quinolin-8-yl)((3S)-3-(4-(trifluoromethyl)phenyl)-4-morpholinyl)methanone]: 5.92 and 7.54.
`Cn1ncc2c3cc(C(=O)N4CCOC[C@@H]4c4ccc(C(F)(F)F)cc4)c(F)cc3nc(N)c21` [Example 518, (4-amino-7-fluoro-3-methyl-3H-pyrazolo[3,4-c]quinolin-8-yl)((3S)-3-(4-(trifluoromethyl)phenyl)-4-morpholinyl)methanone]: the pIC50 was 5.33 in the assay on HCT116 WT cells (Homo sapiens, HCT-116, 144 h) and 7.07 with HCT116 MTAP null cells (HCT116-MTAP null, 144 h).
Consider `Cn1ncc2c(N)nc3cc(F)c(C(=O)N4CCOC[C@@H]4c4ccc(S(F)(F)(F)(F)F)cc4)cc3c21` [Example 450, (4-amino-7-fluoro-1-methyl-1H-pyrazolo [4,3-c]quinolin-8-yl)((3S)-3-(4-(pentafluoro-lambda~6~-sulfanyl)phenyl)-4-morpholinyl)methanone], for which the pIC50 with HCT116 WT cells (Homo sapiens, HCT-116, 144 h) is 7.40; in the assay on HCT116 MTAP null cells (HCT116-MTAP null, 144 h) it was 8.30.
Turning to `Nc1nc2ccc(C(=O)N3CCOCC3c3ccc(F)cc3)cc2c2c1COC2` (racemic) [Example 363, (4-amino-1,3-dihydrofuro[3,4-c]quinolin-8-yl)-[rac-(3S)-3-(4-fluorophenyl)morpholin-4-yl]methanone], the pIC50 in the assay on HCT116 WT cells (Homo sapiens, HCT-116, 144 h) was below 5.00; with HCT116 MTAP null cells (HCT116-MTAP null, 144 h), 5.72.
Turning to `Cn1ncc2c(N)nc3cnc(C(=O)N4CCOC[C@@H]4c4ccc(OC(F)F)nn4)cc3c21` [Example 451, (4-amino-1-methyl-1H-pyrazolo[4,3-c][1,7]naphthyridin-8-yl)((3S)-3-(6-(difluoromethoxy)-3-pyridazinyl)-4-morpholinyl)methanone], the pIC50 is 4.81 with HCT116 WT cells (Homo sapiens, HCT-116, 144 h) and 6.79 with HCT116 MTAP null cells (HCT116-MTAP null, 144 h).
As to `Cc1n[nH]c2c1c(N)nc1ccc(C(=O)N3CCOC[C@@H]3c3ccc(C(F)(F)F)cc3)cc12` [Example 405, (4-amino-3-methyl-1H-pyrazolo[4,3-d]quinolin-8-yl)((3S)-3-(4-(trifluoromethyl)phenyl)-4-morpholinyl)methanone], the pIC50 in the assay on HCT116 WT cells (Homo sapiens, HCT-116, 144 h) was 5.57; in the assay on HCT116 MTAP null cells (HCT116-MTAP null, 144 h), 6.74.
On to `COC(=O)[C@H]1CN(C(=O)c2cc3c4c(c(N)nc3cc2F)COC4)C[C@@H]1c1ccc(C(F)(F)F)cc1` (single isomer, unassigned) [Example 479], for which the pIC50 in the assay with HCT116 WT cells (Homo sapiens, HCT-116, 144 h) was 4.72; with HCT116 MTAP null cells (HCT116-MTAP null, 144 h), 6.24.
Consider `Nc1nc2ccc(C(=O)N3CCOC[C@H]3c3ccc(OC(F)(F)F)nc3)cc2c2c1COC2` (single isomer, unassigned) [Example 591], for which the pIC50 in the assay on HCT116 WT cells (Homo sapiens, HCT-116, 144 h) was below 5.00; in the assay with HCT116 MTAP null cells (HCT116-MTAP null, 144 h), 5.21.
With `CC1(C)CN(C(=O)c2cc3c4c(c(N)nc3cc2F)COC4)C[C@H]1c1ccc(Br)cc1` (single isomer, unassigned) [Example 478], the negative logarithm of the IC50 (pIC50) in the assay with HCT116 WT cells (Homo sapiens, HCT-116, 144 h) was 5.71; in the assay with HCT116 MTAP null cells (HCT116-MTAP null, 144 h), 7.51.
Regarding `Nc1nc2ccc(C(=O)N3CCOC[C@@H]3c3ccc(C(F)(F)C(F)(F)F)cc3)cc2c2c1COC2` [Example 510, (4-amino-1,3-dihydrofuro[3,4-c]quinolin-8-yl)((3S)-3-(4-(pentafluoroethyl)phenyl)-4-morpholinyl)methanone], the pIC50 in the assay with HCT116 WT cells (Homo sapiens, HCT-116, 144 h) was 5.80; in the assay on HCT116 MTAP null cells (HCT116-MTAP null, 144 h), 7.37.
With `Cn1ncc2c(N)nc3cc(F)c(C(=O)N4CC[C@@H](Cc5ccc(C(F)(F)F)cc5)C4)cc3c21` (single isomer, unassigned) [Example 469], the negative-log IC50 (pIC50) was 5.31 with HCT116 WT cells (Homo sapiens, HCT-116, 144 h) and 6.61 in the assay on HCT116 MTAP null cells (HCT116-MTAP null, 144 h).
As for `C[C@H]1OCc2c1c(N)nc1cnc(C(=O)N3[C@@H](C)COC[C@H]3c3ccc(C(F)(F)F)nc3)cc21` (racemic) [Example 308, ((3R)-4-amino-3-methyl-1,3-dihydrofuro[3,4-c][1,7]naphthyridin-8-yl)((3R,5S)-3-methyl-5-(6-(trifluoromethyl)-3-pyridinyl)-4-morpholinyl)methanone and ((3R)-4-amino-3-methyl-1,3-dihydrofuro[3,4-c][1,7]naphthyridin-8-yl)((3S,5R)-3-methyl-5-(6-(trifluoromethyl)-3-pyridinyl)-4-morpholinyl)methanone], the pIC50 in the assay on HCT116 WT cells (Homo sapiens, HCT-116, 144 h) is 5.76; in the assay with HCT116 MTAP null cells (HCT116-MTAP null, 144 h), 7.34.
Take `C[C@H]1COC[C@@H](c2ccc(Cl)nc2)N1C(=O)c1cc2c3c(c(N)nc2cn1)COC3` (racemic) [Example 311, (4-amino-1,3-dihydrofuro[3,4-c][1,7]naphthyridin-8-yl)((3R,5S)-3-(6-chloro-3-pyridinyl)-5-methyl-4-morpholinyl)methanone and (4-amino-1,3-dihydrofuro[3,4-c][1,7]naphthyridin-8-yl)((3S,5R)-3-(6-chloro-3-pyridinyl)-5-methyl-4-morpholinyl)methanone]: the pIC50 was 5.17 with HCT116 WT cells (Homo sapiens, HCT-116, 144 h) and 6.83 in the assay on HCT116 MTAP null cells (HCT116-MTAP null, 144 h).

What is called pIC50 is −log10 of the IC50, conventionally taken in molar units.
